Assays:
Format in all cases: cell-based
[1] = system: Melanocytes (B16 cell line); assay: Number of viable cells by level of cellular proteins (Bradford's method), Example 1; conditions: 3 days incubation, mean +/- SEM
Protocol: (§1) Melanocytes (B16 cell line) were inoculated in standard medium of cell culture with foetal calf serum (FCS). After an incubation of 3 day at 37° C. and CO2=5%, growth medium was exchanged for standard medium with a range of concentrations for each active ingredient to be tested and a control without ingredient. After an incubation of 3 days, the level of melanin was measured by recording the optical density at 475 nm. After washing the cells by a balanced salt solution, and homogenisation in a solution of 0.1 M NaOH, the number of viable cells was determined by evaluation of the level of cellular proteins (Bradford's method). The results are expressed in % against control (cell culture medium without compound) as a mean+/−SEM (Standard Error of Mean) on 2 or 3 assays, each in triplicate.

[2] = system: Melanocytes (B16 cell line); assay: Number of viable cells by level of cellular proteins (Bradford's method), Example 2 combination; conditions: for Amount of cellular proteins: mean +/- SEM
Protocol: (§2) Melanocytes (B16 cell line) were inoculated in standard medium of cell culture with foetal calf serum (FCS). After an incubation for 3 days at 37° C. and CO2=5%, growth medium was exchanged for standard medium with a range of concentrations for each active ingredient to be tested and a control without ingredient. Combinations of active ingredients were tested on the same cultures, in parallel with active ingredients alone. After an incubation of 3 days, the cells were washed by a balanced salt solution, and homogenised in a solution of 0.1 M NaOH. The number of viable cells was determined by evaluation of the level of cellular proteins (Bradford's method) and the level of intracellular melanin was measured by recording the optical density at 475 nm.
(§3) The results are expressed in % against control (cell culture medium without compound) as a mean+/−SEM (Standard Error of Mean) on 5 assays, each in triplicate.

[3] = system: Melanocytes (B16 cell line); assay: Melanogenesis stimulation assay, level of melanin (optical density at 475 nm); conditions: 3 days incubation, mean +/- SEM
Protocol: as §1

[4] = system: Melanocytes (B16 cell line); assay: Melanogenesis stimulation assay for combination, level of intracellular melanin (optical density at 475 nm); conditions: for rate of melanin: mean +/- SEM
Protocol: as §2, §3

[5] = Sclareolide 0.000025 % (w/v) alone
[6] = Sclareolide 0.000050 % (w/v) alone

## CC1(C)CCC[C@]2(C)[C@H]3CC(=O)O[C@]3(C)CC[C@@H]12 [Sclareolide, (3aR,5aS,9aS,9bR)— decahydro-3a,6,6,9a-tetramethyl naphtho(2,1-b)furan-2(1H)-one]
[1]; Dose 0.0003 % (w/v)
  Protein level (rate of cellular proteins): 89 +/− 11 %/control
[1]; Dose 0.001 % (w/v)
  Protein level (rate of cellular proteins): 83 +/− 17 %/control
[2]; [5]
  Amount of cellular proteins: 97 +/− 18 %/control
[2]; [6]
  Amount of cellular proteins: 106 +/− 10 %/control
[2]; concentrations of Table 3, tested separately or mixed
  toxic effects, decrease of amount of cellular proteins (in words): do not show any toxic effects
[3]; Dose 0.0003 % (w/v)
  Melanin level: 174 +/− 55 %/control
[3]; Dose 0.001 % (w/v)
  Melanin level: 286 +/− 83 %/control
[4]; [5]
  rate of melanin: 116 +/− 7 %/control
[4]; [6]
  rate of melanin: 120 +/− 6 %/control
[4]; very low doses (Table 2)
  rate of melanin synthesis / efficacy (in words): increased the rate of melanin synthesis

Reference: US20100183527A1, “Cosmetic Compositions Comprising Sclareolide and Hesperidin Methyl Chalcone” (COGNIS IP MANAGEMENT GMBH, priority 2007, published 2010)
